From patent US8183270B2, “Insecticidal N-substituted (2-substituted-1,3-thiazol)alkyl sulfoximines” (Dow AgroSciences, LLC, priority 2006, dated 2012)

Experiments:
[1] = test system: cotton aphid (Aphis gossypii); experiment: Insecticidal test for cotton aphid in foliar spray assay; format: in vivo; settings: foliar spray on squash cotyledons, 3 days after treatment, Corrected % Control (Abbott)
Procedure: The compounds identified in the foregoing examples (compounds 1-5) and in Table 1 (compounds 6-18) were tested against cotton aphid using procedures described hereinafter. Insecticidal Test for Cotton Aphid (Aphis gossypii) in Foliar Spray Assay Squash with fully expanded cotyledon leaves were trimmed to one cotyledon per plant and infested with cotton aphid (wingless adult and nymph) 1 day prior to chemical application. Each plant was examined before chemical application to ensure proper infestation (ca. 30-70 aphids per plant). Compounds (2 mg) were dissolved in 2 ml of acetone:methanol (1:1) solvent, forming stock solutions of 1000 ppm. The stock solutions were diluted 5× with 0.025% Tween 20 in H2O to obtain the highest test solution at 200 ppm. A lower test concentration (50 ppm) was prepared by making sequential a 4× dilution from the 200 ppm solution with a diluent consisting 80 parts of 0.025% Tween 20 in H2O and 20 parts of acetone:methanol (1:1). A hand-held Devilbiss sprayer was used to apply the spray solutions until runoff to both sides of the squash cotyledon leaves. Four plants (4 replications) were used for each concentration of each compound. Reference plants (solvent check) were sprayed with the diluent only. Treated plants were held in a holding room for 3 days at approximately 23° C. and 40% RH before the number of live aphids on each plant was recorded. Insecticidal activity was measured by Corrected % Control using Abbott's correction formula and the values for the lower test concentrations are presented in Table 1: Corrected % Control=100*(X−Y)/X • where X=No. of live aphids on solvent check plants • Y=No. of live aphids on treated plants CA 200 refers to % control at 200 ppm against cotton aphid in foliar spray tests, CA 50 refers to % control at 50 ppm against cotton aphid in foliar spray tests, In each case of Table 2 the rating scale is as follows: […]

Row | SMILES | melting point | CA 50 (% control at 50 ppm against cotton aphid in foliar spray tests) [1] | CA 200 (% control at 200 ppm against cotton aphid in foliar spray tests) [1]
1 | CS(=O)(Cc1csc(C(F)(F)F)n1)=NC#N (stereo not drawn) [Compound 5, Methyl(oxido){[2-(trifluoromethyl)-1,3-thiazol-4-yl]methyl}-λ^4-sulfanylidenecyanamide] | 66 to 68 °C | E (50-59) | C (70-79)
2 | N#CN=S1(=O)CCCC1Cc1cnc(C(F)(F)F)s1 (stereo not drawn) [Compound 4, 1-Oxo-2-(2-trifluoromethyl-thiazol-5-ylmethyl)-tetrahydro-1-λ^6-thiophen-1-ylidene-cyanamide] |  | A (90-100) | A (90-100)
3 | CS(=O)(Cc1cnc(C(F)(F)F)s1)=NC#N (stereo not drawn) [Compound 1, Methyl(oxido){[2-(trifluoromethyl)-1,3-thiazol-5-yl]methyl}-λ^4-sulfanylidenecyanamide] | 123 to 124 °C | A (90-100) | A (90-100)
4 | CC(c1cnc(C(F)(F)F)s1)S(C)(=O)=NC#N (stereo not drawn) [Compound 3, Methyl(oxido){1-[2-(trifluoromethyl)-1,3-thiazol-5-yl]ethyl}-λ^4-sulfanylidenecyanamide] |  | A (90-100) | A (90-100)
5 | CC(C)(c1cnc(C(F)(F)F)s1)S(C)(=O)=NC#N (stereo not drawn) [Compound 2, Methyl(oxido){1-methyl-1-[2-(trifluoromethyl)-1,3-thiazol-5-yl]ethyl}-λ^4-sulfanylidenecyanamide] |  | C (70-79) | A (90-100)
